Measurements: patent publication US7973029B2 (Gilead Sciences, Inc., priority 2007, dated 2011)
Converted amounts (≈) assume the structure as drawn. Like-named read-outs stand apart in the source and are kept apart here. Marks after values point to notes of the source that are not given here.

What was measured:
[1] = Clinical Trial II: sputum and plasma aztreonam concentrations; assay type: in vivo; details: human, sputum, inhaled, 75 mg, sputum aztreonam concentration, median (range), 10 minutes postdose
[2] = test system: Pseudomonas aeruginosa (PA) isolates; assay: Clinical Trial II: MIC of aztreonam for PA isolates; assay type: cell-based
[3] = test system: Pseudomonas aeruginosa (PA) isolates; assay: Clinical Trial I: MIC for PA isolates; assay type: cell-based; details: for MIC50 / MIC90 / MIC: Pseudomonas aeruginosa
CF patients = details: cited from earlier work
PA = details: cited from earlier work
[4] = Colistin, N = 62, 80 BID/28 days

## C[C@H]1[C@H](NC(=O)/C(=N\OC(C)(C)C(=O)O)c2csc(N)n2)C(=O)N1S(=O)(=O)O [aztreonam]
[1]; Day 0
  concentration at 10 min: 530000 ng/g
[1]; Day 14
  concentration at 10 min: 677000 ng/g
[1]; Day 28
  concentration at 10 min: 451000 ng/g
[2]; read-out: MIC50 of aztreonam for all PA isolates, isolates of AZLI group, baseline
  MIC50: 4 µg/mL
[2]; read-out: MIC50 of aztreonam for all PA isolates, isolates of Placebo group, baseline
  MIC50: 2 µg/mL
[2]; read-out: MIC90 of aztreonam for all PA isolates, isolates of AZLI group, baseline
  MIC90: 128 µg/mL
[2]; read-out: MIC90 of aztreonam for all PA isolates, isolates of Placebo group, baseline
  MIC90: 64 µg/mL
[2]; read-out: Maximum MIC of aztreonam for all PA isolates, isolates of AZLI group, baseline
  MIC: > 2050 µg/mL
[2]; read-out: Maximum MIC of aztreonam for all PA isolates, isolates of Placebo group, baseline
  MIC: 256 µg/mL
[2]; read-out: Minimum MIC of aztreonam for all PA isolates, isolates of Placebo group, baseline
  MIC: ≤ 1 µg/mL
[3]; 0 h, read-out: MIC50 of aztreonam for all PA isolates, isolates of AZLI-BID group, Day 0
  MIC50: 2 µg/mL (≈ 4.59 µM)
[3]; 0 h, read-out: MIC50 of aztreonam for all PA isolates, isolates of AZLI-Pooled group, Day 0
  MIC50: 2 µg/mL (≈ 4.59 µM)
[3]; 0 h, read-out: MIC50 of aztreonam for all PA isolates, isolates of AZLI-TID group, Day 0
  MIC50: 2 µg/mL (≈ 4.59 µM)
[3]; 0 h, read-out: MIC50 of aztreonam for all PA isolates, isolates of Placebo group, Day 0
  MIC50: ≤ 1 µg/mL
[3]; 0 h, read-out: MIC90 of aztreonam for all PA isolates, isolates of AZLI-BID group, Day 0
  MIC90: 64 µg/mL (≈ 147 µM)
[3]; 0 h, read-out: MIC90 of aztreonam for all PA isolates, isolates of AZLI-Pooled group, Day 0
  MIC90: 32 µg/mL (≈ 73.5 µM)
[3]; 0 h, read-out: MIC90 of aztreonam for all PA isolates, isolates of AZLI-TID group, Day 0
  MIC90: 32 µg/mL (≈ 73.5 µM)
[3]; 0 h, read-out: MIC90 of aztreonam for all PA isolates, isolates of Placebo group, Day 0
  MIC90: 64 µg/mL (≈ 147 µM)
[3]; 0 h, read-out: Maximum MIC of aztreonam for all PA isolates, isolates of AZLI-BID group, Day 0
  MIC: > 2050 µg/mL
[3]; 0 h, read-out: Maximum MIC of aztreonam for all PA isolates, isolates of AZLI-Pooled group, Day 0
  MIC: > 2050 µg/mL
[3]; 0 h, read-out: Maximum MIC of aztreonam for all PA isolates, isolates of AZLI-TID group, Day 0
  MIC: 1020 µg/mL
[3]; 0 h, read-out: Maximum MIC of aztreonam for all PA isolates, isolates of Placebo group, Day 0
  MIC: 1020 µg/mL
[3]; 0 h, read-out: Minimum MIC of aztreonam for all PA isolates, isolates of AZLI-BID group, Day 0
  MIC: ≤ 1 µg/mL
[3]; 0 h, read-out: Minimum MIC of aztreonam for all PA isolates, isolates of AZLI-Pooled group, Day 0
  MIC: ≤ 1 µg/mL
[3]; 0 h, read-out: Minimum MIC of aztreonam for all PA isolates, isolates of AZLI-TID group, Day 0
  MIC: ≤ 1 µg/mL
[3]; 0 h, read-out: Minimum MIC of aztreonam for all PA isolates, isolates of Placebo group, Day 0
  MIC: ≤ 1 µg/mL

## NC[C@H]1O[C@H](O[C@H]2[C@H](O)[C@@H](O[C@H]3O[C@H](CO)[C@@H](O)[C@H](N)[C@H]3O)[C@H](N)C[C@@H]2N)[C@H](N)C[C@@H]1O [tobramycin]
CF patients; 600 TID, N = 36
  FEV1 Change (absolute change in FEV1 % predicted, comparison to control after 28 days of therapy): 10%^a
[3]; Days −28 to 56
  MIC50 and MIC90 of tobramycin for PA isolates, change: ≤ 4 fold
[3]; isolates of AZLI-BID group, Day −28, read-out: MIC50 of tobramycin for all PA isolates
  MIC50: 1 µg/mL (≈ 2.14 µM)
[3]; isolates of AZLI-BID group, Day −28, read-out: MIC90 of tobramycin for all PA isolates
  MIC90: 16 µg/mL (≈ 34.2 µM)
[3]; isolates of AZLI-Pooled group, Day −28, read-out: MIC50 of tobramycin for all PA isolates
  MIC50: 1 µg/mL (≈ 2.14 µM)
[3]; isolates of AZLI-Pooled group, Day −28, read-out: MIC90 of tobramycin for all PA isolates
  MIC90: 32 µg/mL (≈ 68.4 µM)
[3]; isolates of AZLI-TID group, Day −28, read-out: MIC50 of tobramycin for all PA isolates
  MIC50: 2 µg/mL (≈ 4.28 µM)
[3]; isolates of AZLI-TID group, Day −28, read-out: MIC90 of tobramycin for all PA isolates
  MIC90: 64 µg/mL (≈ 137 µM)
[3]; isolates of Placebo group, Day −28, read-out: MIC50 of tobramycin for all PA isolates
  MIC50: 2 µg/mL (≈ 4.28 µM)
[3]; isolates of Placebo group, Day −28, read-out: MIC90 of tobramycin for all PA isolates
  MIC90: 256 µg/mL (≈ 548 µM)
PA; Tobramycin 600 TID, N = 36
  PA Density Change (Log10): −2.0 Log10

## Colistin
CF patients; [4]
  FEV1 Change (relative change in FEV1 % predicted, comparison to control after 28 days of therapy): 0%^b
PA; [4]
  PA Density Change (Log10): −0.6 Log10

B1: Pulmozyme: Pulmozyme registration trial comparator (protein, UniProt P24855 23-282, looked up)
Deoxyribonuclease-1: LKIAAFNIQTFGETKMSNATLVSYIVQILSRYDIALVQEVRDSHLTAVGKLLDNLNQDAPDTYHYVVSEPLGRNSYKERYLFVYRPDQVSAVDSYYYDDGCEPCGNDTFNREPAIVRFFSRFTEVREFAIVPLHAAPGDAVAEIDALYDVYLDVQEKWGLEDVMLMGDFNAGCSYVRPSQWSSIRLWTSPTFQWLIPDSADTTATPTHCAYDRIVVAGMLLRGAVVPDSALPFNFQAAYGLSDQLAQAISDHYPVEVMLK
CF patients; 2.5 mg BID/24 weeks
  FEV1 Change (percent change in FEV1 (L), comparison to control after 24 weeks of therapy): 5.8 ± 0.7^c %
CF patients; 2.5 mg TID/24 weeks
  FEV1 Change (percent change in FEV1 (L), comparison to control after 24 weeks of therapy): 5.6 ± 0.7^c %
